# Laboratory results reported in patent US12522576B2, “Polymorphs of D9-THC naphthoylester” (priority 2019, dated 2026).
# What was measured:
# [1] = Visual solubility of Form B; assay type: physicochemical
# Method: Solubility of D9-THC-naphthoylester, Form B (Batch 2) was determined by visual assessment in various solvents at RT and 50° C. Aliquots of solvent were added to 20 mg of solids at room temperature and 25 mg of solids at 50° C. until complete dissolution or until a maximum volume of 1 mL was added.
# [2] = D9 solubility in the liquors at isolation temperature; assay type: physicochemical; details: organic solvent or mixture, thermodynamic from solid
# Method: At the end of each experiment, suspensions were equilibrated at the isolation temperature (25 or 5° C.) for at least 18 hours and the solids and liquors separated by centrifugation at the isolation temperature. The Exo/D9/D8 ratio (Exo-D9-THC-naphthoylester impurity/D9-THC-naphthoylester/D8-THC-naphthoylester) was determined in both the isolated solids and the liquors, from which the % Exo-depletion in the isolated solids was calculated. Several solids were also isolated at elevated temperatures to assess the impact of the isolation temperature on Exo-impurity depletion.
# In addition, the solubility of D9 in the liquors was determined in most of the explored solvents and used to estimate the yield.
compound,measurement,setting,value
"CCCCCc1cc(OC(=O)c2ccc3ccccc3c2)c2c(c1)OC(C)(C)[C@@H]1CCC(C)=C[C@@H]21 [Form B, (6aR,10aR)-6a,7,8,10a-tetrahydro-6,6,9-trimethyl-3-pentyl-6H-dibenzo[b,d]pyran-1-yl ester]",solubility,"[1]; alcohols, organic solvent or mixture, thermodynamic from solid, read-out: Solubility",< 10 mg/mL
same,solubility,"[1]; common organic solvents, organic solvent or mixture, thermodynamic from solid, read-out: Solubility",> 100 mg/mL
same,solubility,"[1]; organic solvent or mixture, thermodynamic from solid, solvent 1,4-Dioxane, RT, read-out: Visual Solubility at RT",> 404 mg/mL
same,solubility,"[1]; organic solvent or mixture, thermodynamic from solid, solvent 2Me-THF, RT, read-out: Visual Solubility at RT",> 368 mg/mL
same,solubility,"[1]; organic solvent or mixture, thermodynamic from solid, solvent Acetone/MeOH (1:3), 50° C., read-out: Visual Solubility at 50° C.",25 to 40 mg/mL
same,solubility,"[1]; organic solvent or mixture, thermodynamic from solid, solvent Acetone/MeOH (1:3), RT, read-out: Visual Solubility at RT",10 to 20 mg/mL
same,solubility,"[1]; organic solvent or mixture, thermodynamic from solid, solvent Acetone, RT, read-out: Visual Solubility at RT",94 to 376 mg/mL
same,solubility,"[1]; organic solvent or mixture, thermodynamic from solid, solvent BuOH/MeOH (1:3), 50° C., read-out: Visual Solubility at 50° C.",26 to 51 mg/mL
same,solubility,"[1]; organic solvent or mixture, thermodynamic from solid, solvent BuOH/MeOH (1:3), RT, read-out: Visual Solubility at RT",< 10 mg/mL
same,solubility,"[1]; organic solvent or mixture, thermodynamic from solid, solvent Cyclohexane, RT, read-out: Visual Solubility at RT",92 to 368 mg/mL
same,solubility,"[1]; organic solvent or mixture, thermodynamic from solid, solvent DCM, RT, read-out: Visual Solubility at RT",> 404 mg/mL
same,solubility,"[1]; organic solvent or mixture, thermodynamic from solid, solvent DMSO, 50° C., read-out: Visual Solubility at 50° C.",25 to 50 mg/mL
same,solubility,"[1]; organic solvent or mixture, thermodynamic from solid, solvent DMSO, RT, read-out: Visual Solubility at RT",18 to 46 mg/mL
same,solubility,"[1]; organic solvent or mixture, thermodynamic from solid, solvent EtOAc, RT, read-out: Visual Solubility at RT",> 372 mg/mL
same,solubility,"[1]; organic solvent or mixture, thermodynamic from solid, solvent EtOH, 50° C., read-out: Visual Solubility at 50° C.",25 to 50 mg/mL
same,solubility,"[1]; organic solvent or mixture, thermodynamic from solid, solvent EtOH, RT, read-out: Visual Solubility at RT",< 9 mg/mL
same,solubility,"[1]; organic solvent or mixture, thermodynamic from solid, solvent Heptane, 50° C., read-out: Visual Solubility at 50° C.",127 to 254 mg/mL
same,solubility,"[1]; organic solvent or mixture, thermodynamic from solid, solvent Heptane, RT, read-out: Visual Solubility at RT",20 to 51 mg/mL
same,solubility,"[1]; organic solvent or mixture, thermodynamic from solid, solvent IPA:water (9:1), 50° C., read-out: Visual Solubility at 50° C.",< 27 mg/mL
same,solubility,"[1]; organic solvent or mixture, thermodynamic from solid, solvent IPA:water (9:1), RT, read-out: Visual Solubility at RT",< 10 mg/mL
same,solubility,"[1]; organic solvent or mixture, thermodynamic from solid, solvent IPA, 50° C., read-out: Visual Solubility at 50° C.",25 to 50 mg/mL
same,solubility,"[1]; organic solvent or mixture, thermodynamic from solid, solvent IPA, RT, read-out: Visual Solubility at RT",< 10 mg/mL
same,solubility,"[1]; organic solvent or mixture, thermodynamic from solid, solvent MIBK, RT, read-out: Visual Solubility at RT",105 to 420 mg/mL
same,solubility,"[1]; organic solvent or mixture, thermodynamic from solid, solvent MTBE, RT, read-out: Visual Solubility at RT",93 to 372 mg/mL
same,solubility,"[1]; organic solvent or mixture, thermodynamic from solid, solvent MeCN, 50° C., read-out: Visual Solubility at 50° C.",25 to 50 mg/mL
same,solubility,"[1]; organic solvent or mixture, thermodynamic from solid, solvent MeCN, RT, read-out: Visual Solubility at RT",9 to 18 mg/mL
same,solubility,"[1]; organic solvent or mixture, thermodynamic from solid, solvent MeOH, 50° C., read-out: Visual Solubility at 50° C.",< 25 mg/mL
same,solubility,"[1]; organic solvent or mixture, thermodynamic from solid, solvent MeOH, RT, read-out: Visual Solubility at RT",< 9 mg/mL
same,solubility,"[1]; organic solvent or mixture, thermodynamic from solid, solvent THF/MeOH (1:1), RT, read-out: Visual Solubility at RT",98 to 392 mg/mL
same,solubility,"[1]; organic solvent or mixture, thermodynamic from solid, solvent Toluene, RT, read-out: Visual Solubility at RT",> 376 mg/mL
same,solubility,"[1]; thermodynamic from solid, solvent Water, 50° C., read-out: Visual Solubility at 50° C.",< 24 mg/mL
same,solubility,"[1]; thermodynamic from solid, solvent Water, RT, read-out: Visual Solubility at RT",< 9 mg/mL
same,solubility,[1]; water,poorly soluble
same,solubility,"[2]; 1,4-Dioxane/MeOH (1:9), 25 °C, batch 5, 1,4-Dioxane/MeOH (1:9), seed E/G, heat T 50, isolation T 25, SP 3, 4.8 mL/g",6 mg/mL
same,solubility,"[2]; Anisole/MeOH (1:9), 5 °C, batch 5, Anisole/MeOH (1:9), seed G, heat T 40, isolation T 5, SP 10, 30.0 mL/g",9.8 mg/mL
same,solubility,"[2]; Cyclohexanone/EtOH (1:9), 25 °C, batch 5, Cyclohexanone/EtOH (1:9), seed G/H, heat T 55, isolation T 25, SP 16, 5.0 mL/g",21.1 mg/mL
same,solubility,"[2]; Cyclohexanone/MeOH (1:9), 25 °C, batch 5, Cyclohexanone/MeOH (1:9), seed G/H, heat T 60, isolation T 25, SP 12, 10.0 mL/g",7.6 mg/mL
same,solubility,"[2]; DMF/MeOH (1:9), 25 °C, batch 5, DMF/MeOH (1:9), seed D, heat T 50, isolation T 25, SP 2, 8.9 mL/g",5.2 mg/mL
same,solubility,"[2]; DMF/MeOH (1:9), 25 °C, batch 5, DMF/MeOH (1:9), seed G, heat T 50, isolation T 25, SP 3, 9.4 mL/g",4.7 mg/mL
same,solubility,"[2]; DMF/MeOH (1:9), 25 °C, batch 5, DMF/MeOH (1:9), seed G, heat T 60, isolation T 25, SP 9, 10.0 mL/g",5.1 mg/mL
same,solubility,"[2]; DMSO/MeOH (1:9), 25 °C, batch 5, DMSO/MeOH (1:9), seed D, heat T 50, isolation T 25, SP 2, 8.2 mL/g",4.1 mg/mL
same,solubility,"[2]; DMSO/MeOH (1:9), 25 °C, batch 5, DMSO/MeOH (1:9), seed D/G, heat T 60, isolation T 25, SP 9, 10.0 mL/g",4.2 mg/mL
same,solubility,"[2]; DMSO/MeOH (1:9), 25 °C, batch 5, DMSO/MeOH (1:9), seed G, heat T 50, isolation T 25, SP 4, 9.4 mL/g",3.7 mg/mL
same,solubility,"[2]; DMSO/MeOH (3:7), 25 °C, batch 5, DMSO/MeOH (3:7), seed D, heat T 50, isolation T 25, SP 2, 7.1 mL/g",7.5 mg/mL
same,solubility,"[2]; DMSO/MeOH (3:7), 25 °C, batch 5, DMSO/MeOH (3:7), seed G, heat T 50, isolation T 25, SP 4, 5.2 mL/g",7 mg/mL
same,solubility,"[2]; DMSO/acetone/MeOH (1.5:1.5:7), 25 °C, batch 5, DMSO/acetone/MeOH (1.5:1.5:7), seed D, heat T 50, isolation T 25, SP 2, 5.0 mL/g",9.1 mg/mL
same,solubility,"[2]; DMSO/acetone/MeOH (1.5:1.5:7), 25 °C, batch 5, DMSO/acetone/MeOH (1.5:1.5:7), seed G, heat T 50, isolation T 25, SP 4, 5.1 mL/g",7.2 mg/mL
same,solubility,"[2]; EtOAc/EtOH (1:9), 25 °C, batch 5, EtOAc/EtOH (1:9), seed H, heat T 55, isolation T 25, SP 21, 10.0 mL/g",12 mg/mL
same,solubility,"[2]; EtOAc/MeOH (1:3), 5 °C, batch 5, EtOAc/MeOH (1:3), seed G, heat T 25, isolation T 5, SP 11, 30.0 mL/g",11.2 mg/mL
same,solubility,"[2]; IPA, 25 °C, batch 5, IPA, seed G/H, heat T 50, isolation T 25, SP 14, 10.0 mL/g",7.3 mg/mL
same,solubility,"[2]; IPA/water (95:5), 25 °C, batch 5, IPA/water (95:5), seed G/H, heat T 60, isolation T 25, SP 12, 10.0 mL/g",4.5 mg/mL
same,solubility,"[2]; MEK/IPA (1:9), 25 °C, batch 5, MEK/IPA (1:9), seed G/H, heat T 55, isolation T 25, SP 15, 5.0 mL/g",17.2 mg/mL
same,solubility,"[2]; MEK/MeOH (1:9), 25 °C, batch 5, MEK/MeOH (1:9), seed G/H, heat T 60, isolation T 25, SP 12, 10.0 mL/g",4.5 mg/mL
